Patent US20100105746A1, “METHOD FOR TREATING METABOLIC DISEASES” (priority 2008, published 2010)

Assays:
[1] = Weight gain in rats over seven-day dosing (Example 3); format: in vivo, rat; settings: 7 days
Method: In an initial experiment, two dose groups of six animals per group received either 5 or 50 mg/kg b.i.d., and a further group received vehicle only, as a control. A follow-up experiment was performed to explore dose-response and the selected doses were 15 and 50 mg/kg b.i.d., again plus control.
Body weights of individual rats were recorded before and after the seven-day dosing period.

[2] = Plasma lipids, lipoproteins and liver weight in normal rats versus fibrates (Example 8); format: in vivo, rat; settings: once daily p.o. 7 days
From the text: (§1) The study design was based on the protocols used in Examples 1-3. Male Sprague-Dawley rats were provided normal chow ad libitum, both before and during the study period. […] Six rats were assigned to each treatment group (8 to the vehicle control). The study terminated on the day following administration of the seventh dose (day 8), with terminal blood collected for plasma lipid and lipoprotein analyses including LC-MS-based determination of lipid profiles, total and free cholesterol analyses, and lipoprotein cholesterol determinations (VLDL, LDL and HDL).
In order to elucidate the impact of romazarit on plasma lipoproteins, an ultraviolet (UV) size exclusion chromatography (SEC) system was used to separate plasma into broad lipoprotein-containing fractions that were based on relative retention times of human VLDL (very low density lipoprotein), LDL (low density lipoprotein), and HDL (high density lipoprotein) standards. These fractions were collected for cholesterol assays and the UV chromatograms were integrated to provide relative quantitation of the three lipoprotein types. It is important to note that since the UV absorbance measurement is not specific for lipoproteins and may also derive from other plasma constituents that co-elute with a particular lipoprotein, the relative quantitation data reported here is an approximation. The HDL fraction in particular may have included such co-eluting species, as evidenced by the relatively high integrated area values for this fraction.

[3] = Metabolic parameters / indicators of insulin sensitivity in normal rats (Example 9); format: in vivo, rat
From the text: as §1, with “Male” for “The study design was based on the protocols used in Examples 1-3. Male”
Adiponectin is an insulin-sensitizing protein that is abundantly expressed in adipocytes and is secreted into the circulation (see review by Lara-Castro et al. (2007) cited above).

[4] = Diabetic-prone (db/db) mouse model with high-fat diet (Example 7); format: in vivo; settings: db/db mice, high-fat diet, 15, 50 and 100 mg/kg once daily
Method: The fibrate PPARα agonist fenofibrate (50 mg/kg) and the PPARγ agonist rosiglitazone (10 mg/kg) were used as reference controls for the study.

[5] = Body weight, food consumption and liver weight in diet-induced obese (DIO) rat model (Example 4); format: in vivo; settings: for liver weight: rat, in vivo, po
Method: Male Sprague-Dawley rats were acclimated for 7 weeks on a high-fat diet before commencement of dose administration, and maintained on the same diet throughout the subsequent dosing period of 23 days. The high-fat diet (D12492 commercially available from Research Diets, Inc., New Brunswick, N.J.) was one in which at least 60% of calories are derived from fat.
Dose levels of gemfibrozil (50 mg/kg) and sibutramine (10 mg/kg) were selected based on published reports. All treatments were administered once daily by oral gavage in 10 ml vehicle. A vehicle-only control was also administered. Each treatment group consisted of 10 animals.
Body weight of each animal was measured weekly during the 7-week acclimation period and five times weekly during the 23-day dosing period. Food consumption was recorded twice weekly during the 7-week acclimation period and five times weekly during the 23-day dosing period.
Animals were sacrificed and liver weights measured at conclusion of the study.

[6] = DIO rats, 50 mg/kg once daily p.o.
[7] = DIO rats, 100 mg/kg once daily p.o.

## Cc1nc(-c2ccc(Cl)cc2)oc1COC(C)(C)C(=O)O [romazarit, 2-[[2-(4-chlorophenyl)-4-methyl-5-oxazolyl]methoxy]-2-methylpropanoic acid]
[1]; 15 mg/kg b.i.d. p.o., second experiment
  weight gain: generally similar to that seen in the initial experiment with the 5 mg/kg dose
[1]; 50 mg/kg b.i.d. p.o., initial experiment
  weight gain: dramatic inhibition of weight gain
[1]; 50 mg/kg b.i.d. p.o., second experiment
  weight gain: not only inhibited weight gain, but even resulted in weight loss
[2]; 50 and 100 mg/kg
  potency in lowering plasma free fatty acids compared to the other compounds tested: superior potency
[2]; 50 and 100 mg/kg (romazarit also 10 mg/kg)
  plasma cholesterol esters: increased at least some fractions of plasma cholesterol esters
[2]; romazarit 10, 50 and 100 mg/kg
  plasma free fatty acids: lowered plasma free fatty acids in a dose-dependent manner
  plasma triglycerides: significantly lowered
[3]; once daily p.o. 7 days
  glucose in plasma: appeared to lower
  insulin in plasma: appeared to lower
  plasma glucagon: lowered
[3]; once daily p.o. 7 days, 10, 50 and 100 mg/kg
  plasma adiponectin: dose-dependently increased
[4]
  HDL: did not significantly affect
  total cholesterol: did not significantly affect
  total plasma triglycerides: tendency likewise to reduce total plasma triglycerides at higher doses
  weight gain: None of the romazarit or fenofibrate treatments reduced weight gain
  whole blood glucose levels: no such effect was seen
[5]; DIO rats, 15 mg/kg once daily p.o., throughout the dosing period
  food consumption: comparable to the vehicle control
[5]; [6]
  day by which food consumption returned to levels comparable to the vehicle control: ≤ 15 days
  day of minimum food consumption: 6 days
[5]; DIO rats, 50 mg/kg once daily p.o., day 16
  body weight loss by comparison with the vehicle control: 10.3%
[5]; DIO rats, 50 mg/kg once daily p.o., day 23
  body weight loss by comparison with the vehicle control: 4.6%
[5]; DIO rats, 50 mg/kg once daily p.o., first 13 days of the dosing period
  food consumption: significantly less than the vehicle control
[5]; [7]
  day by which food consumption returned to levels comparable to the vehicle control: ≤ 15 days
  day of minimum food consumption: 8 days
[5]; DIO rats, 100 mg/kg once daily p.o., day 16
  body weight loss by comparison with the vehicle control (maximum): 16%
[5]; DIO rats, 100 mg/kg once daily p.o., end of study (day 23)
  body weight loss by comparison with the vehicle control: 13.3%
[5]; DIO rats, 100 mg/kg once daily p.o., first 13 days of the dosing period
  food consumption: significantly less than the vehicle control
[5]; 15 mg/kg
  liver weight: No increase in liver weight
[5]; 50 mg/kg
  liver weight: Increased liver weight
[5]; 100 mg/kg
  liver weight: Increased liver weight
